Assay results reported in patent US20220022457A1, “Microbicide Ammonium-Imidazolium Oligomers and Their Anti-Fungal Compositions” (AGENCY FOR SCIENCE, TECHNOLOGY AND RESEARCH, priority 2018, published 2022).
Converted amounts (≈) assume the structure as drawn.

Experiments:
[1] = test system: Candida albicans (ATCC 10231, fungus); experiment: Minimum inhibitory concentration, microdilution assay; format: cell-based
Method: Staphylococcus aureus (ATCC 6538, Gram-positive), Escherichia coli (ATCC 8739, Gram-negative), Pseudomonas aeruginosa (ATCC 9027, Gram-negative), and Candida albicans (ATCC 10231, fungus) were used as representative microorganisms to challenge the antimicrobial functions of the oligomers. All bacteria and fungus were frozen at -80° C., and were grown overnight at 37° C. in Mueller Hinton Broth (MHB, BD Singapore) prior to experiments. Fungus was grown overnight at 22° C. in Yeast Mold Broth (YMB, BD Singapore). […] […] […] Medium solution containing microbial cells alone were used as control (100% microbial growth). The assay was performed in four replicates and the experiments were repeated at least two times.

[2] = test system: C. albicans; experiment: Checkerboard assay of oligomers with triazoles (FIC); format: cell-based; conditions: Candida albicans
Method: […]. […] A row and a column in which a serial dilution of each agent was present alone were also prepared for MIC test. Then each solution in the well plate was inoculated with 100 μL of logarithmically grown 10^6 cells/ml C. albicans cells in the 96-well plate. The plate also contained a column with C. albicans only as control (100% cell growth). The cells were incubated at room temperature for 24 h with constant shaking, after which cell growth (i.e. the O.D. at 600 nm) was monitored with a microplate reader (TECAN) Synergy between fluconazole and oligomers was determined by calculating the fractional inhibitory concentration index ([…] was calculated as follows: FIC=(MIColigomer A in combination/MIColigomer A alone)+(MICazole B in combination/MICazole B alone). […] The interaction of selected oligomers with other triazoles such as itraconazole and voriconazole was also investigated using the checkerboard dilution method. For comparison, the interaction of the selected oligomer with a non-triazole antifungal agent […] was also investigated.

[3] = test system: Candida albicans; experiment: Killing efficacy of selected oligomers at 62 μg/ml (FIG. 1); format: cell-based
[4] = test system: C. albicans; format: cell-based, Candida albicans
[5] = test system: Escherichia coli (ATCC 8739, Gram-negative); experiment: Minimum inhibitory concentration, microdilution assay; format: cell-based; conditions: 24 h, lowest concentration with no visible growth
Method: (§1) Staphylococcus aureus (ATCC 6538, Gram-positive), Escherichia coli (ATCC 8739, Gram-negative), Pseudomonas aeruginosa (ATCC 9027, Gram-negative), and Candida albicans (ATCC 10231, fungus) were used as representative microorganisms to challenge the antimicrobial functions of the oligomers. All bacteria and fungus were frozen at -80° C., and were grown overnight at 37° C. in Mueller Hinton Broth (MHB, BD Singapore) prior to experiments. Fungus was grown overnight at 22° C. in Yeast Mold Broth (YMB, BD Singapore). […] The plates were incubated at 37° C. for 24 h with constant shaking speed at 300 rpm. […] Medium solution containing microbial cells alone were used as control (100% microbial growth). The assay was performed in four replicates and the experiments were repeated at least two times.

[6] = test system: Pseudomonas aeruginosa (ATCC 9027, Gram-negative); experiment: as above; format: cell-based; conditions: 24 h, lowest concentration with no visible growth
Method: as §1

[7] = test system: Staphylococcus aureus (ATCC 6538, Gram-positive); experiment: as above; format: cell-based; conditions: 24 h, lowest concentration with no visible growth
Method: as §1

[8] = test system: mouse red blood cells (RBCs); experiment: Hemolysis study; format: cell-based; conditions: oligomer concentration giving 10% hemolysis, 1 h, 37° C.
Method: After 1 h incubation at 37° C., the mixture was centrifuged at 2000 rpm for 5 min. Aliquots (100 μl) of the supernatant were transferred to a 96-well plate. Hemolytic activity was determined as a function of hemoglobin release by measuring absorbance of the supernatant at 576 nm using a microplate reader. A control solution that contained only PBS was used as a reference for 0% hemolysis. Absorbance of red blood cells lysed with 0.5% Triton-X was taken as 100% hemolysis. The oligomer concentration which results in 10% hemolysis is indicated as HC10 in Table 1. The data were expressed as mean and S.D. of four replicates. % Hemolysis=[OD576 nm (polymer)−OD576 nm (PBS)]/[OD576 nm (Triton-X)−OD576 nm (PBS)]×100%

[9] = Critical micelle concentration; format: physicochemical
[10] = test system: Staphylococcus aureus; experiment: Percentage growth after 24 hours with norfloxacin, IDPBX8 and 1:1 mixture (FIG. 2a); format: cell-based; conditions: IDPBX8 combined with norfloxacin, 1:1 weight ratio
[11] = test system: C. albicans; experiment: Growth of C. albicans with IDPBX8, fluconazole or combination (OD600, colony counting; FIG. 2b, 2c)

SMILES: OC(Cn1cncn1)(Cn1cncn1)c1ccc(F)cc1F [Fluconazole, fluconazole, reference compound]
- MIC ([1]; ATCC10231, Candida albicans ~10^6 CFU/ml, YMB, room temperature, no visible growth): 2 to 4 µg/mL (≈ 6.53 to 13.1 µM)
- MIC50 ([2]; triazole alone, read-out: Alone MIC50 component B): 4 µg/mL
- Alone MIC50 component B ([2]; triazole alone): 2 µg/mL
- Combined MIC50 component B ([2]; triazole in combination with IDPBX8): 0.5 µg/mL
- Combined MIC50 component B ([2]; triazole in combination with IDPPX8): 0.25 µg/mL
- Combined MIC50 component B ([2]; triazole in combination with IIDPPBX8): 2 µg/mL
- Number of surviving C. albicans after 24 h treatment compared with control ([3]; 62 μg/ml, 24 h): significantly less than the untreated control
- Fungistatic or fungicidal ([3]; 62 μg/ml, survivors at 24 h compared with 0 h): fungistatic rather than fungicidal
- MIC increase by the 31th passage ([4]; grown at 1/4 MIC, 31th passage): 8 times of the original MIC

SMILES: CCCCCCCC[n+]1ccn(Cc2ccc(C[N+]34CC[N+](C/C=C/C[N+]56CC[N+](Cc7ccc(Cn8cc[n+](CCCCCCCC)c8)cc7)(CC5)CC6)(CC3)CC4)cc2)c1.[Br-].[Br-].[Br-].[Br-].[Br-].[Br-] [IDPBX8]
- MIC E.C. [5]: 31 µg/mL
- MIC P.A. [6]: 62 µg/mL
- MIC S.A. [7]: 16 µg/mL
- MIC C.A. ([1]; Candida albicans ~10^6 CFU/ml, YMB, room temperature, no visible growth): 8 to 31 µg/mL
- MIC50 C.A. (value in brackets) ([1]; Candida albicans, concentration inhibiting 50% fungal growth): (2-8) μg/ml
- Interaction when applied together with voriconazole [2]: Synergy
- FIC with Fluconazole ([2]; calculated from lowest concentration inhibiting at least 50% growth): 0.38
- Alone MIC50 component A ([2]; oligomer alone): 8 µg/mL
- Combined MIC50 component A ([2]; oligomer in combination with Fluconazole): 1 µg/mL
- Combined MIC50 component A ([2]; oligomer in combination with Itraconazole): 1 µg/mL
- Combined MIC50 component A ([2]; oligomer in combination with Voriconazole): 2 µg/mL
- FIC ([2]; oligomer with Fluconazole (Table 2)): 0.38
- FIC ([2]; oligomer with Itraconazole): 0.62
- FIC ([2]; oligomer with Voriconazole): 0.31
- HC10 [8]: >2000 µg/mL
- CMC [9]: 1456 µg/mL
- Efficacy of combination versus single agents [10]: did not show improved efficacy
- Killing ([3]; 62 μg/ml, after 24 h treatment): 99%
- Killing ([3]; 62 μg/ml, after 48 h): 99.99%
- Killing kinetics ([3]; IDPBX8 compared with IIDPPBX8): kills faster
- Resistance developed by C. albicans ([4]; 36 consecutive days of treatment): no significant resistance was developed
- MICs over the entire 36 passages ([4]; grown at 1/4 MIC): relatively stable
- Total concentration of the combination at which killing effect was observed [11]: 2 µg/mL
- Activity of combination versus single agents ([11]; IDPBX8 combined with fluconazole, 1:1 weight ratio, 24 h): higher activity than each compound/medicine used alone
